Reference: patent US6342261B1, “Method of preserving foods using noble gases” (American Air Liquide, priority 1992, dated 2002)

How the values were obtained:
Type in all cases: biochemical
Tyrosinase EC 1.14.18.1 = assay: Enzyme activity under gas: tyrosinase; conditions: 25°, optimal reaction conditions, simple saturation of solution with gas
Procedure: (§1) Sealed cuvettes containing enzymes representative of and in fact important in food product degradation processes were thoroughly purged and filled with assay gases. Injection of gassed substrate solutions started the reactions, which were generally conducted under optimal conditions. These were monitored […] by scanning uv/vis spectrophotometry. All controls were conducted for oxygen, nitrogen and carbon dioxide. A range of temperatures and pressures were employed. An example protocol is appended. Results were expressed in real-time, and transformed to calculate yield and rate differences for the reaction. Over 50 exemplary enzymes were so assayed. Enzymes selected for examination from various products are assayed in precisely the same manner, but always in terms of relative activity in comparison with that product in air or another control gas or gas mixture.
(§2) The follwing Table summarizes the maximum inhibition of enzymes activity realized with various noble gases under various storage conditions.
at 25° and optimal reaction conditions, simple saturation of solution with gas: […]

[1] = target: Glucose oxidase EC 1.1.3.4 (Aspergillus niger, UniProt P13006); assay: Enzyme activity under gas: glucose oxidase
Chain of Glucose oxidase EC 1.1.3.4 (P13006 17-605): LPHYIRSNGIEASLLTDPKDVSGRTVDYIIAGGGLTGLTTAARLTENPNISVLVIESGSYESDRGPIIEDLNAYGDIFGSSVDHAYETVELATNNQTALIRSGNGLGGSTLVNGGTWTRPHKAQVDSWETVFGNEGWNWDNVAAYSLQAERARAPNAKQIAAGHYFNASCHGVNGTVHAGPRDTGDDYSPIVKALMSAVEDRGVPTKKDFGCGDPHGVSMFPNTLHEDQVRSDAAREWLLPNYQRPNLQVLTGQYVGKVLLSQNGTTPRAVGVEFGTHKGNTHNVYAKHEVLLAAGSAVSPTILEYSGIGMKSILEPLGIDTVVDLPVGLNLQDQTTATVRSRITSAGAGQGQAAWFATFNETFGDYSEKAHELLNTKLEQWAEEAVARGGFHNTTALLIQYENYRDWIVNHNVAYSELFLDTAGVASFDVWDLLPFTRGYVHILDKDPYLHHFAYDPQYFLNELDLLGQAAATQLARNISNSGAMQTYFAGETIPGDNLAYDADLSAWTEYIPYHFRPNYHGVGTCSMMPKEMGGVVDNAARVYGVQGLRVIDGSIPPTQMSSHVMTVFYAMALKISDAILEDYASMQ
Procedure: as §1, §2

[2] = target: Gamma-glutamyl transpeptidase EC 2.3.2.2 (Homo sapiens, UniProt P19440); assay: Enzyme activity under gas: gamma-glutamyl transpeptidase
Chain of Gamma-glutamyl transpeptidase EC 2.3.2.2 (P19440 whole entry): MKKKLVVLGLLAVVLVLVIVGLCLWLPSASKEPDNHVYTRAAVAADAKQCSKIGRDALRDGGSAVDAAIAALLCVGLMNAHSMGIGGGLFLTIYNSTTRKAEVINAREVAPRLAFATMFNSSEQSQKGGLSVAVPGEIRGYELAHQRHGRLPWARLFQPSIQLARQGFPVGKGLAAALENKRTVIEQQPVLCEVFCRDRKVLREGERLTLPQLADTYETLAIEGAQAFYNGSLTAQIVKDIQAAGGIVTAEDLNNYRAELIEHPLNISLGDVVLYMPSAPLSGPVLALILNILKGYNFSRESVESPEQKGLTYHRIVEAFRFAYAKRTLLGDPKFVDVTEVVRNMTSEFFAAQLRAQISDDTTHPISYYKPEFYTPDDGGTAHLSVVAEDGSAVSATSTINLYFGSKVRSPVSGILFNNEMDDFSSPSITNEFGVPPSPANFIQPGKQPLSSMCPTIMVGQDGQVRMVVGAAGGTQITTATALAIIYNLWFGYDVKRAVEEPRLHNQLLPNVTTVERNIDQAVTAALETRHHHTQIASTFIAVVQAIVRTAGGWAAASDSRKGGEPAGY
Procedure: as §1, §2

[3] = test system: Aspartate aminotransferase (EC 2.6.1.1); assay: Enzyme activity under gas: aspartate aminotransferase
Procedure: as §1, §2

Lipase EC 3.1.1.3 = assay: Enzyme activity under gas: lipase
Procedure: as §1, §2

[4] = test system: Acetyl-CoA synthetase EC 6.2.1.1; assay: Enzyme activity under gas: acetyl-CoA synthetase
Procedure: as §1, §2

Phosphoglucose isomerase = Phosphoglucose isomerase (Homo sapiens, UniProt P06744); assay: Enzyme activity under gas: phosphoglucose isomerase
Procedure: as §1, §2

## [Kr] [Kr, krypton]
Tyrosinase EC 1.14.18.1
  Result (inhibition vs air), maximum inhibition of enzyme activity: −73%
[1]
  Result (inhibition), maximum inhibition of enzyme activity: −92.7%
[2]
  Result (inhibition), maximum inhibition of enzyme activity: −8%
[3]
  Result (inhibition), maximum inhibition of enzyme activity: −82%
Lipase EC 3.1.1.3
  Result, With Lipase: −25%
[4]
  Result: −16%

## [Ne] [Ne, neon]
Tyrosinase EC 1.14.18.1
  Result (inhibition vs air), maximum inhibition of enzyme activity: −46.7%
[1]
  Result (inhibition), maximum inhibition of enzyme activity: −61.7%
[2]
  Result (inhibition), maximum inhibition of enzyme activity: −3%
[3]
  Result (inhibition), maximum inhibition of enzyme activity: −12%
Lipase EC 3.1.1.3
  Result, With Lipase: −15%
Phosphoglucose isomerase
  Result: −45%
[4]
  Result: −15%

## [Xe] [Xe, xenon]
[1]
  Result (inhibition), maximum inhibition of enzyme activity: −91.6% (inhibition)
[2]
  Result (inhibition), maximum inhibition of enzyme activity: −7% (inhibition)
[3]
  Result (inhibition), maximum inhibition of enzyme activity: −17% (inhibition)
Lipase EC 3.1.1.3
  Result, With Lipase: −25.6%
Phosphoglucose isomerase
  Result: −61%
[4]
  Result: −18%
